Measurements taken from PubChem BioAssay AID2060611 (Molecular Pharmacology Branch, DTP, NCI, 2025).
Several values for one entry are separate records, joined by “and”; a condition that tells them apart may be missing. Equal entries are not always repeated.

Tested on: 628569-122-R-J1-PDC complex spheroid viability
Test: Anticancer human tumor 628569-122-R-J1-PDC patient-derived head and neck squamous carcinoma cell line growth inhibition [CLK]
Details: for viability, T/C: stronger effect = lower value
Outline: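 Patient-derived tumor cells grown as complex spheroids with HUVEC endothelial cells and mesenchymal stem cells, treated with drug combinations. Concentrations descend in half-log steps from near clinical Cmax, or from 10 microM if Cmax unknown.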

[1] = curve of first compound, second compound 0.0316 µM
[2] = curve of first compound, second compound 0.1 µM
[3] = curve of first compound, second compound 0.316 µM
[4] = curve of first compound, second compound 1 µM
[5] = curve of first compound, second compound 3.16 µM
[6] = curve of first compound, second compound 10 µM
[7] = second compound 0.0316 µM, first compound 0.0316 µM
[8] = second compound 0.0316 µM, first compound 0.1 µM
[9] = second compound 0.0316 µM, first compound 0.316 µM
[10] = second compound 0.0316 µM, first compound 1 µM
[11] = second compound 0.0316 µM, first compound 3.16 µM
[12] = second compound 0.0316 µM, first compound 10 µM
[13] = second compound 0.1 µM, first compound 0.0316 µM
[14] = second compound 0.1 µM, first compound 0.1 µM
[15] = second compound 0.1 µM, first compound 0.316 µM
[16] = second compound 0.1 µM, first compound 1 µM
[17] = second compound 0.1 µM, first compound 3.16 µM
[18] = second compound 0.1 µM, first compound 10 µM
[19] = second compound 0.316 µM, first compound 0.0316 µM
[20] = second compound 0.316 µM, first compound 0.1 µM
[21] = second compound 0.316 µM, first compound 0.316 µM
[22] = second compound 0.316 µM, first compound 1 µM
[23] = second compound 0.316 µM, first compound 3.16 µM
[24] = second compound 0.316 µM, first compound 10 µM
[25] = second compound 1 µM, first compound 0.0316 µM
[26] = second compound 1 µM, first compound 0.1 µM
[27] = second compound 1 µM, first compound 0.316 µM
[28] = second compound 1 µM, first compound 1 µM
[29] = second compound 1 µM, first compound 3.16 µM
[30] = second compound 1 µM, first compound 10 µM
[31] = second compound 3.16 µM, first compound 0.0316 µM
[32] = second compound 3.16 µM, first compound 0.1 µM
[33] = second compound 3.16 µM, first compound 0.316 µM
[34] = second compound 3.16 µM, first compound 1 µM
[35] = second compound 3.16 µM, first compound 3.16 µM
[36] = second compound 3.16 µM, first compound 10 µM
[37] = second compound 10 µM, first compound 0.0316 µM
[38] = second compound 10 µM, first compound 0.1 µM
[39] = second compound 10 µM, first compound 0.316 µM
[40] = second compound 10 µM, first compound 1 µM
[41] = second compound 10 µM, first compound 3.16 µM
[42] = second compound 10 µM, first compound 10 µM
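Also: spheroids exposed to agents for seven days before readout.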
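For viability, T/C in this document: 100% = DMSO vehicle control viability.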

CC(Nc1ccc2c(c1)OCCn1cc(N3C(=O)OCC3C(F)F)nc1-2)C(N)=O (stereo not drawn) + CNC(=O)c1ccc(Nc2nc(OC3CCCC3)c3c(-c4ccc5nc(C)oc5c4)c[nH]c3n2)c(OC)c1
IC50 [1]: 269 nM
IC50 [2]: 31.7 nM
IC50 [3]: < 31.6 nM
IC50 [4]: < 31.6 nM
IC50 [5]: < 31.6 nM
IC50 [6]: < 31.6 nM
viability, T/C [7]: 67.3%
viability, T/C [8]: 61.1%
viability, T/C [9]: 48.2%
viability, T/C [10]: 34.2%
viability, T/C [11]: 41.8%
viability, T/C [12]: 26.5%
viability, T/C [13]: 55.7%
viability, T/C [14]: 38.5%
viability, T/C [15]: 31.9%
viability, T/C [16]: 40.5%
viability, T/C [17]: 38.2%
viability, T/C [18]: 17.7%
viability, T/C [19]: 41%
viability, T/C [20]: 44.8%
viability, T/C [21]: 36.5%
viability, T/C [22]: 43.1%
viability, T/C [23]: 32.3%
viability, T/C [24]: 16.9%
viability, T/C [25]: 39.5%
viability, T/C [26]: 32.6%
viability, T/C [27]: 29.6%
viability, T/C [28]: 27.5%
viability, T/C [29]: 23.4%
viability, T/C [30]: 13.5%
viability, T/C [31]: 37.1%
viability, T/C [32]: 31.7%
viability, T/C [33]: 26.8%
viability, T/C [34]: 22.2%
viability, T/C [35]: 20.8%
viability, T/C [36]: 16.3%
viability, T/C [37]: 34.7%
viability, T/C [38]: 28.2%
viability, T/C [39]: 26.5%
viability, T/C [40]: 25.9%
viability, T/C [41]: 23.2%
viability, T/C [42]: 13.2%

O=c1[nH]cc(F)c(=O)[nH]1
viability, T/C (compound 0.0316 µM): 93.5% and 94.5%
viability, T/C (compound 0.1 µM): 103% and 97.7%
viability, T/C (compound 0.316 µM): 96% and 86.2%
viability, T/C (compound 1 µM): 82.7% and 70.5%
viability, T/C (compound 3.16 µM): 84.2% and 69.9%
viability, T/C (compound 10 µM): 68.2% and 50.6%
IC50 (curve of compound): > 10000 nM

NC(=O)C(=Cn1cnc(-c2cc(C(F)(F)F)cc(C(F)(F)F)c2)n1)c1cncnc1 + CN1CCN(c2cc(C(=O)Nc3cc4cc(-c5cnn(C)c5)ccc4cn3)ccn2)CC1
IC50 [1]: 681 nM
IC50 [2]: 28.5 nM
IC50 [3]: < 9.49 nM
IC50 [4]: < 9.49 nM
IC50 [5]: < 9.49 nM
IC50 [6]: < 9.49 nM
viability, T/C (second compound 0.0316 µM, first compound 0.00949 µM): 79.3%
viability, T/C (second compound 0.0316 µM, first compound 0.03 µM): 67.5%
viability, T/C (second compound 0.0316 µM, first compound 0.0949 µM): 76%
viability, T/C (second compound 0.0316 µM, first compound 0.3 µM): 76.1%
viability, T/C (second compound 0.0316 µM, first compound 0.949 µM): 38.1%
viability, T/C (second compound 0.0316 µM, first compound 3 µM): 41.8%
viability, T/C (second compound 0.1 µM, first compound 0.00949 µM): 47.6%
viability, T/C (second compound 0.1 µM, first compound 0.03 µM): 53%
viability, T/C (second compound 0.1 µM, first compound 0.0949 µM): 47.4%
viability, T/C (second compound 0.1 µM, first compound 0.3 µM): 35%
viability, T/C (second compound 0.1 µM, first compound 0.949 µM): 22.3%
viability, T/C (second compound 0.1 µM, first compound 3 µM): 13.7%
viability, T/C (second compound 0.316 µM, first compound 0.00949 µM): 31.6%
viability, T/C (second compound 0.316 µM, first compound 0.03 µM): 22.2%
viability, T/C (second compound 0.316 µM, first compound 0.0949 µM): 8.26%
viability, T/C (second compound 0.316 µM, first compound 0.3 µM): 6.76%
viability, T/C (second compound 0.316 µM, first compound 0.949 µM): 4.81%
viability, T/C (second compound 0.316 µM, first compound 3 µM): 2.61%
viability, T/C (second compound 1 µM, first compound 0.00949 µM): 8.6%
viability, T/C (second compound 1 µM, first compound 0.03 µM): 7.83%
viability, T/C (second compound 1 µM, first compound 0.0949 µM): 5.77%
viability, T/C (second compound 1 µM, first compound 0.3 µM): 4.21%
viability, T/C (second compound 1 µM, first compound 0.949 µM): 5.37%
viability, T/C (second compound 1 µM, first compound 3 µM): 1.7%
viability, T/C (second compound 3.16 µM, first compound 0.00949 µM): 6.02%
viability, T/C (second compound 3.16 µM, first compound 0.03 µM): 7.42%
viability, T/C (second compound 3.16 µM, first compound 0.0949 µM): 10.8%
viability, T/C (second compound 3.16 µM, first compound 0.3 µM): 16.6%
viability, T/C (second compound 3.16 µM, first compound 0.949 µM): 4.54%
viability, T/C (second compound 3.16 µM, first compound 3 µM): 1.65%
viability, T/C (second compound 10 µM, first compound 0.00949 µM): 4.54%
viability, T/C (second compound 10 µM, first compound 0.03 µM): 4.5%
viability, T/C (second compound 10 µM, first compound 0.0949 µM): 6.08%
viability, T/C (second compound 10 µM, first compound 0.3 µM): 5.71%
viability, T/C (second compound 10 µM, first compound 0.949 µM): 1.68%
viability, T/C (second compound 10 µM, first compound 3 µM): 1.21%

CC1(C)CCC(CN2CCN(c3ccc(C(=O)NS(=O)(=O)c4ccc(NCC5CCOCC5)c([N+](=O)[O-])c4)c(Oc4cnc5[nH]ccc5c4)c3)CC2)=C(c2ccc(Cl)cc2)C1 + CNC(=O)c1ccc(Nc2nc(OC3CCCC3)c3c(-c4ccc5nc(C)oc5c4)c[nH]c3n2)c(OC)c1
IC50 [1]: > 10000 nM
IC50 [2]: > 10000 nM
IC50 [3]: > 10000 nM
IC50 [4]: > 10000 nM
IC50 [5]: < 31.6 nM
IC50 [6]: 80.2 nM
viability, T/C [7]: 124%
viability, T/C [8]: 102%
viability, T/C [9]: 96.6%
viability, T/C [10]: 94.7%
viability, T/C [11]: 111%
viability, T/C [12]: 75.4%
viability, T/C [13]: 65.9%
viability, T/C [14]: 55.9%
viability, T/C [15]: 60.4%
viability, T/C [16]: 57.5%
viability, T/C [17]: 60.4%
viability, T/C [18]: 63.4%
viability, T/C [19]: 52.7%
viability, T/C [20]: 51.8%
viability, T/C [21]: 53.6%
viability, T/C [22]: 57.9%
viability, T/C [23]: 69.7%
viability, T/C [24]: 51%
viability, T/C [25]: 48.1%
viability, T/C [26]: 51.4%
viability, T/C [27]: 53.2%
viability, T/C [28]: 59.6%
viability, T/C [29]: 49.4%
viability, T/C [30]: 53.6%
viability, T/C [31]: 46.1%
viability, T/C [32]: 48.4%
viability, T/C [33]: 53.5%
viability, T/C [34]: 51.4%
viability, T/C [35]: 45.8%
viability, T/C [36]: 41.2%
viability, T/C [37]: 59.9%
viability, T/C [38]: 48.7%
viability, T/C [39]: 41.1%
viability, T/C [40]: 43.5%
viability, T/C [41]: 47.2%
viability, T/C [42]: 38.6%
